In publication PMC6214715 (Journal of veterinary pharmacology and therapeutics, 2018):
Read-outs that look alike come from different tables or passages of the source.

Assays:
[1] = system: cat liver microsomes; format: in vitro ADME; settings: for formation to metabolism ratio: feline liver microsomes, formation rate from (±)-tramadol (Perez Jimenez, 2016) / rate of (+)-M5 formation from the (+)-metabolite
[2] = target: T1, CYP2D15 (Canis lupus familiaris, UniProt Q29473); format: in vitro ADME, canine; settings: recombinant CYP2D15; (+)-M1 10 μM, (+)-M2 0.5 μM
T1 sequence (Q29473 1-500): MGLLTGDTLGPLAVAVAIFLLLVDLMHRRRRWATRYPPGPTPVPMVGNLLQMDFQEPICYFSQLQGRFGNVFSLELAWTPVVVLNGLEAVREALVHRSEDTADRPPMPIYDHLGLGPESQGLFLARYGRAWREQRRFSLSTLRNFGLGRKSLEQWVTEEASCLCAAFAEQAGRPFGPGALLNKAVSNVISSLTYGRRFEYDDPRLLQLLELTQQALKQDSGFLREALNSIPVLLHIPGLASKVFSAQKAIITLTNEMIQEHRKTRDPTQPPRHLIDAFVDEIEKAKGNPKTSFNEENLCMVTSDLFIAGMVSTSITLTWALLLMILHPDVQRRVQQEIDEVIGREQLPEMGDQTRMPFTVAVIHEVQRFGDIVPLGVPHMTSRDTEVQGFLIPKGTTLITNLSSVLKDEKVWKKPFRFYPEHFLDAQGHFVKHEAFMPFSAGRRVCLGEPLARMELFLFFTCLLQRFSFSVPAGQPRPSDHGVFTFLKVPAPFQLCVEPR

[3] = system: dog liver microsomes; format: in vitro ADME; settings: for Km / Vmax: formation of (+)-M5 from substrate; for formation to metabolism ratio: DLMs, formation rate from (±)-tramadol (Perez Jimenez, 2016) / rate of (+)-M5 formation from the (+)-metabolite
[4] = rats, after tramadol administration; ref Sheikholeslami, 2016; cited from earlier work
[5] = system: human liver microsomes; format: in vitro ADME; settings: human liver microsomes; formation rate from (±)-tramadol (Perez Jimenez, 2016) / rate of (+)-M5 formation from the (+)-metabolite
[6] = dog urine; ref Lintz, 1981; cited from earlier work
[7] = system: μ-opioid; settings: in vitro testing; ref Gillen, 2000; cited from earlier work
[8] = dogs, after tramadol administration; ref Kukanich, 2011; Giorgi, 2009; cited from earlier work
[9] = system: CYP2D15; settings: CYP2D15 mediated dextromethorphan o-demethylation in DLMs; ref Aidasani, 2008; cited from earlier work
[10] = target: T1, CYP2D15; experiment: in vitro; settings: dog, recombinant enzyme
[11] = system: (+)-M5 formation from (+)-M2 in pooled DLMs; experiment: in vitro; settings: dog
[12] = system: (+)-M5 formation from (+)-M1 in pooled DLMs; experiment: in vitro; settings: dog
[13] = target: T2, CYP2C21 (Canis lupus familiaris, UniProt P56594); experiment: in vitro; settings: dog, recombinant enzyme
T2 sequence (P56594 1-487): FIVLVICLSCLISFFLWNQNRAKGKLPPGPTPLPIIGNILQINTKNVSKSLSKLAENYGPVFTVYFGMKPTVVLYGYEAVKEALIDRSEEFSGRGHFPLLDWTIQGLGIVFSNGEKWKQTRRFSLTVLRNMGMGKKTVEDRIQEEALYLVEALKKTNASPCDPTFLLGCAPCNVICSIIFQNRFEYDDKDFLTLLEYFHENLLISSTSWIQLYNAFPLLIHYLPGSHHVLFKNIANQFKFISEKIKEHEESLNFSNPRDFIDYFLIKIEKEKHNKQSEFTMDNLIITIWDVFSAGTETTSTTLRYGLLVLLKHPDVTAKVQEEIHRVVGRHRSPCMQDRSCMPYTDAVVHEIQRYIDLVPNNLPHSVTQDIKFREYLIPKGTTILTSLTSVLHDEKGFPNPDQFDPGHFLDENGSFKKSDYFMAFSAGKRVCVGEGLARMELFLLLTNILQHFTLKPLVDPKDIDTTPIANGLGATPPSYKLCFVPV

In the case of `CNCC1CCCCC1(O)c1cccc(OC)c1` (single isomer, unassigned; (+)) [(+)-M2, (+)-N-desmethyltramadol], the “(+)-M5 formation rate (in words)” value ([1]; pooled cat liver microsomes (n = 16), (+)-M1 at 10 μM, (+)-M2 at 0.5 μM) is reported as “intermediate between human and DLMs”, the “formation rate of (+)-M5 (in words)” value [2] is reported as “only detected for CYP2D15” and the Km ([3]; Dog 10 liver microsomes) is reported as 0.46 µM. For the same molecule, the Vmax ([3]; Dog 10 liver microsomes) was 27 pmol/min/mg protein, the Km ([3]; Dog 31 liver microsomes) was 0.39 µM and the Vmax ([3]; Dog 31 liver microsomes) was 23 pmol/min/mg protein. It also gave a Km ([3]; Dog 46 liver microsomes) of 0.38 µM, a Vmax ([3]; Dog 46 liver microsomes) of 39 pmol/min/mg protein and a Km ([3]; pDLM (liver microsomes pooled from 59 dogs)) of 0.56 µM. The Vmax ([3]; pDLM (pooled from 59 dogs)) was 50 pmol/min/mg protein and the “(+)-M5 formation rate (in words)” value ([3]; pooled dog liver microsomes (n = 59), (+)-M1 at 10 μM, (+)-M2 at 0.5 μM) was “highest activities”.

In the case of `CN(C)C[C@H]1CCCC[C@]1(O)c1cccc(O)c1` [M1, O-desmethyltramadol], the “CSF to plasma concentration ratio” value [4] is listed as 0.3, the “formation to metabolism ratio” value [1] is listed as 1926 and the “formation to metabolism ratio” value [5] is listed as 71. For the same molecule, the “formation to metabolism ratio” value [3] was 42.

In the case of `CNCC1CCCCC1(O)c1cccc(OC)c1` (centres unmarked) [M2, N-desmethyltramadol], the “CSF to plasma concentration ratio” value [4] is listed as 0.4, the “formation to metabolism ratio” value [1] is listed as 1.7 and the “formation to metabolism ratio” value [5] is listed as 2.9. For the same molecule, the “formation to metabolism ratio” value [3] was 3.1.

For `CNCC1CCCCC1(O)c1cccc(O)c1` (centres unmarked) [M5, N,O-didesmethyltramadol], the “CSF to plasma concentration ratio” value [4] is listed as “less than 0.1”, the “CSF to plasma ratio less than M1” value [4] is listed as 3 fold and the “M5 and M5 conjugates as a percentage of total metabolites in urine” value [6] is listed as 43%. The “weaker μ-opioid agonist efficacy and potency compared with M1” value [7] was “about 30 times” and the “plasma concentration higher than M1 concentrations” value [8] was “about 20 fold”.

In the case of `CC(=O)N1CCN(c2ccc(OCC3COC(Cn4ccnc4)(c4ccc(Cl)cc4Cl)O3)cc2)CC1` (centres unmarked) [ketoconazole], the IC50 [9] is listed as 470 nM.

Molecule `C=C[C@H]1C[N@@]2CC[C@H]1C[C@@H]2[C@@H](O)c1ccnc2ccc(OC)cc12` [quinidine] has an inhibition at 5 min, 10 μM [10] greater than 70% and an inhibition at 5 min, 10 μM [11] greater than 70%.

Molecule `Nc1ccc(S(=O)(=O)Nc2ccnn2-c2ccccc2)cc1` [sulfaphenazole] has an inhibition at 5 min, 100 μM [10] of less than 50%, an inhibition at 5 min, 100 μM [11] of less than 50% and an inhibition at 20 min, 100 μM [12] greater than 50%. For the same molecule, the inhibition at 20 min, 100 μM [13] was greater than 50%.

In the case of `COc1cccc(C2(O)CCCCC2CN(C)C)c1` (centres unmarked) [tramadol, reference compound], the “CSF to plasma concentration ratio” value [4] is given as 0.44.
